Assay results from the NIST ThermoML archive (doi:10.1021/acs.jced.8b00680).
Values joined by “and” are separate entries in the source; they are usually repeats but may differ in a detail not shown here. Equal values may be shown once.

Conditions: Liquid, Ebulliometric method (Recirculating still)

CCCCCCCO [heptan-1-ol]
Conditions | vapor or sublimation pressure [kPa]
419.4 K | 40
420.4 K | 40.12
423 K | 44.2
426.27 K | 49.44
430.35 K | 56.78
433.75 K | 63.5
438.22 K | 73.4
441.44 K | 81.04
444.34 K | 88.14

CCCCCO [pentan-1-ol]
Conditions | vapor or sublimation pressure [kPa]
384.45 K | 40
384.85 K | 40.01
392.76 K | 54.41
398.11 K | 66.15
400.95 K | 72.93
404.59 K | 82.75
407.17 K | 90.21
410.73 K | 101.2

CCCCCCCCCCCC [dodecane]
Conditions | vapor or sublimation pressure
453.92 K | 40.08 kPa and 40 kPa
456.87 K | 43.58 kPa
459.31 K | 46.71 kPa
461.72 K | 49.93 kPa
465.47 K | 55.35 kPa
467.52 K | 58.41 kPa
470.69 K | 63.63 kPa
474.33 K | 69.97 kPa
478.47 K | 77.75 kPa

CCO [ethanol]
Conditions | vapor or sublimation pressure [kPa]
351.44 K | 101.3

CCCCCCCCO [octan-1-ol]
Conditions | vapor or sublimation pressure [kPa]
436.67 K | 40
437.67 K | 40.08
443.61 K | 48.62
445.86 K | 52.15
450.45 K | 60.03
454.35 K | 67.6
457.08 K | 74.25
460.31 K | 81.52
463.5 K | 89.16
466.8 K | 97.64

CCCCCCCCCCC [undecane]
Conditions | vapor or sublimation pressure [kPa]
434.5 K | 40
434.6 K | 40.04
438.71 K | 45.18
442.2 K | 50.04
445.4 K | 54.82
448.68 K | 60.13
451.59 K | 65.09
454.55 K | 70.48
458.59 K | 78.59

CCCCCCCCCCO [decan-1-ol]
Conditions | vapor or sublimation pressure [kPa]
469.23 K | 40
469.83 K | 40.03
472.98 K | 44.4
475.4 K | 47.97
476.8 K | 50.19
479.42 K | 54.07
481.36 K | 57.04
484.05 K | 61.26
487.9 K | 67.43
491.16 K | 73.44
492.56 K | 76.32
494.46 K | 79.92
496.88 K | 85.24

CC(C)CC(C)(C)C [2,2,4-trimethylpentane]
Conditions | vapor or sublimation pressure [kPa]
372.26 K | 101.3

CCCCCCO [hexan-1-ol]
Conditions | vapor or sublimation pressure [kPa]
402.36 K | 40
403.66 K | 40.02
407.89 K | 48.72
413.31 K | 58.84
418.35 K | 69.27
421.9 K | 77.4
425.15 K | 85.63
427.54 K | 92.07
429.19 K | 99.78

CCCCCCCCCC [decane]
Conditions | vapor or sublimation pressure [kPa]
414.08 K | 40
414.18 K | 40
420.5 K | 48.74
425.83 K | 57.04
431.14 K | 66.32
435.6 K | 75.05
439.77 K | 83.97
443.51 K | 92.72
446.01 K | 98.88

CCCCCCCCC [nonane]
Conditions | vapor or sublimation pressure [kPa]
392.17 K | 40
392.77 K | 39.96
399.76 K | 49.24
404.65 K | 58.04
409.14 K | 66.68
413.23 K | 75.48
417.05 K | 84.18
420.83 K | 93.72
423.88 K | 101.7

CCCCCCCCCCCCCC [tetradecane]
Conditions | vapor or sublimation pressure [kPa]
489.17 K | 40
489.26 K | 40.04
491.29 K | 42.42
492.53 K | 43.8
495.18 K | 46.96
496.08 K | 48.13
497.96 K | 50.5
498.07 K | 50.7
